Data on twelve compounds can be found in paper PMC10184535, “An HR2-Mimicking Sulfonyl-γ-AApeptide Is a Potent Pan-coronavirus Fusion Inhibitor with Strong Blood–Brain Barrier Permeability, Long Half-Life, and Promising Oral Bioavailability” (ACS Central Science, 2023).

Where two headings read alike, the source gives them in different places.

The nature of data set [1]: PAMPA-GIT. Particulars: at three different pH values. (PAMPA measures passive passage across an artificial lipid membrane.)
In data set [2] the test system is SARS-CoV-2 PsV. Particulars: 48 h.
Data set [3] has as its target T1, HR1 peptide (911–987) (Severe acute respiratory syndrome coronavirus 2, UniProt P0DTC2).
T1 construct: purchased NovoPep Limited
In words: Fluorescence polarization binding to HR1 peptide. More on the design: species or system SARS-CoV-2. (In general: Fluorescence polarisation rises when a labelled molecule tumbles more slowly, as on binding a larger partner.)

Data set [4] deals with SARS-CoV-2 PsV. Particulars: previously reported EK1 peptide; read-out: IC50, SARS-CoV-2 PsV infection, previously reported; cited from earlier work.
The test system of data set [5] is pseudotyped bat SARSr-CoV WIV1. Particulars: 48 h.
Data set [6] concerns pseudotyped HCoV-NL63. Particulars: 48 h.
The test system of data set [7] is pseudotyped MERS-CoV. Particulars: 48 h.
Data set [8] deals with pseudotyped SARS-CoV. Particulars: 48 h.

Consider `NC(=O)N1c2ccccc2C=Cc2ccccc21` [carbamazepine], for which the Papp at 30 min, 50 μM in data set [1] (50 μM, positive control) was around 150 ×10⁻⁶ cm/s. For the compound `CC(=O)N[C@H](CC(C)C)CN(CC(=O)N[C@H](CCCCN)CN(CC(=O)N[C@H](CC(C)C)CN(CC(=O)N[C@H](CCC(=O)O)CN(CC(=O)N[C@H](CC(C)C)CN(CC(=O)N[C@H](CCC(=O)O)CN(CC(=O)N[C@H](C)CN(CC(=O)N[C@H](CCCCN)CN(CC(=O)N[C@H](C)CN(CC(=O)N[C@H](CCC(=O)O)CN(CC(=O)N[C@H](CC(C)C)CN(CC(=O)NCCCCCC(=O)NCCCCCC(=O)N[C@@H](CSCC(=O)OCCOCCOCCOCCO[C@H]1CC[C@@]2(C)C(=CC[C@H]3[C@@H]4CC[C@H]([C@H](C)CCCC(C)C)[C@@]4(C)CC[C@@H]32)C1)C(N)=O)S(=O)(=O)CC(C)C)S(C)(=O)=O)S(=O)(=O)CCN)S(C)(=O)=O)S(=O)(=O)CCN)S(=O)(=O)CC(C)C)S(=O)(=O)CCN)S(=O)(=O)CCN)S(C)(=O)=O)S(=O)(=O)CCN)S(=O)(=O)CC(C)C` [XY4-C1], the IC50 in data set [2] is 29.8 µM.

`CC(=O)N[C@H](CC(C)C)CN(CC(=O)N[C@H](CCCCN)CN(CC(=O)N[C@H](CC(C)C)CN(CC(=O)N[C@H](CCC(=O)O)CN(CC(=O)N[C@H](CC(C)C)CN(CC(=O)N[C@H](CCC(=O)O)CN(CC(=O)N[C@H](C)CN(CC(=O)N[C@H](CCCCN)CN(CC(=O)N[C@H](C)CN(CC(=O)N[C@H](CCC(=O)O)CN(CC(=O)N[C@H](CC(C)C)CN(CC(N)=O)S(=O)(=O)CC(C)C)S(C)(=O)=O)S(=O)(=O)CCN)S(=O)(=O)CC(C)C)S(=O)(=O)CCN)S(=O)(=O)CC(C)C)S(=O)(=O)CCN)S(=O)(=O)CCN)S(C)(=O)=O)S(=O)(=O)CCN)S(=O)(=O)CCN` [XY3] displayed an equilibrium dissociation constant (Kd) in data set [3] of 0.426 µM. Compound `CC(=O)N[C@H](CC(C)C)CN(CC(=O)N[C@H](CCCCN)CN(CC(=O)N[C@H](CC(C)C)CN(CC(=O)N[C@H](CCC(=O)O)CN(CC(=O)N[C@H](CC(C)C)CN(CC(=O)N[C@H](CCC(=O)O)CN(CC(=O)N[C@H](C)CN(CC(=O)N[C@H](CCCCN)CN(CC(=O)N[C@H](C)CN(CC(=O)N[C@H](CCC(=O)O)CN(CC(=O)N[C@H](CC(C)C)CN(CC(=O)NCCCCCC(=O)NCCCCCC(=O)N[C@@H](CSCC(=O)OCCOCCOCCOCCOCCOCCOCCOCCOCCOCCOCCOCCO[C@H]1CC[C@@]2(C)C(=CC[C@H]3[C@@H]4CC[C@H]([C@H](C)CCCC(C)C)[C@@]4(C)CC[C@@H]32)C1)C(N)=O)S(=O)(=O)CC(C)C)S(C)(=O)=O)S(=O)(=O)CCN)S(C)(=O)=O)S(=O)(=O)CCN)S(=O)(=O)CC(C)C)S(=O)(=O)CCN)S(=O)(=O)CCN)S(C)(=O)=O)S(=O)(=O)CCN)S(=O)(=O)CC(C)C` [XY4-C3] returned an IC50 in data set [2] of 0.92 µM. Regarding `CC[C@H](C)[C@H](NC(=O)[C@H](C)NC(=O)[C@H](CCC(=O)O)NC(=O)[C@H](CCC(=O)O)NC(=O)[C@H](CC(C)C)NC(=O)[C@H](CCCCN)NC(=O)[C@H](CCCCN)NC(=O)[C@H](CCSC)NC(=O)[C@H](CCC(=O)O)NC(=O)[C@H](Cc1ccc(O)cc1)NC(=O)[C@H](CCC(=O)O)NC(=O)[C@H](CC(C)C)NC(=O)[C@H](CC(=O)O)NC(=O)[C@H](CC(C)C)NC(=O)[C@H](Cc1ccccc1)NC(=O)[C@@H](NC(=O)[C@@H](NC(=O)[C@H](CC(N)=O)NC(=O)[C@@H](NC(=O)[C@H](CCC(N)=O)NC(=O)[C@H](CC(=O)O)NC(=O)[C@H](CC(C)C)NC(=O)[C@@H](N)CO)[C@@H](C)CC)C(C)C)[C@@H](C)O)C(=O)N[C@@H](CCCCN)C(=O)N[C@@H](CCCCN)C(=O)N[C@@H](CC(C)C)C(=O)N[C@@H](CCC(=O)O)C(=O)N[C@@H](CCC(=O)O)C(=O)N[C@@H](CO)C(=O)N[C@@H](Cc1ccc(O)cc1)C(=O)N[C@H](C(=O)N[C@@H](CC(=O)O)C(=O)N[C@@H](CC(C)C)C(=O)N[C@@H](CCCCN)C(=O)N[C@@H](CCC(=O)O)C(=O)N[C@@H](CC(C)C)C(=O)O)[C@@H](C)CC` [EK1], the IC50 is 2.38 µM in data set [4]; 19 µM in data set [5]; 4.17 µM in data set [6]; 0.21 µM in data set [7]; 1.21 µM in data set [8]. `CC(=O)N[C@H](CC(C)C)CN(CC(=O)N[C@H](CCCCN)CN(CC(=O)N[C@H](CC(C)C)CN(CC(=O)N[C@H](CCC(=O)O)CN(CC(=O)N[C@H](CC(C)C)CN(CC(=O)N[C@H](CCC(=O)O)CN(CC(=O)N[C@H](C)CN(CC(=O)N[C@H](CCCCN)CN(CC(=O)N[C@H](C)CN(CC(=O)N[C@H](CCC(=O)O)CN(CC(=O)N[C@H](CC(C)C)CN(CC(=O)N[C@H](CO)CN(CC(=O)N[C@H](CO)CN(CC(=O)N[C@@H](CSCC(=O)OCCOCCOCCOCCOCCOCCOCCOCCO[C@H]1CC[C@@]2(C)C(=CC[C@H]3[C@@H]4CC[C@H]([C@H](C)CCCC(C)C)[C@@]4(C)CC[C@@H]32)C1)C(N)=O)S(C)(=O)=O)S(C)(=O)=O)S(=O)(=O)CC(C)C)S(C)(=O)=O)S(=O)(=O)CCN)S(C)(=O)=O)S(=O)(=O)CCN)S(=O)(=O)CC(C)C)S(=O)(=O)CCN)S(=O)(=O)CCN)S(C)(=O)=O)S(=O)(=O)CCN)S(=O)(=O)CC(C)C` [XY4-C5] came in with an IC50 in data set [2] of 4.05 µM.

Regarding `CC(=O)N[C@H](CC(C)C)CN(CC(=O)N[C@H](CCCCN)CN(CC(=O)N[C@H](CC(C)C)CN(CC(=O)N[C@H](CCC(=O)O)CN(CC(=O)N[C@H](CC(C)C)CN(CC(=O)N[C@H](CCC(=O)O)CN(CC(=O)N[C@H](C)CN(CC(=O)N[C@H](CCCCN)CN(CC(=O)N[C@H](C)CN(CC(=O)N[C@H](CCC(=O)O)CN(CC(=O)N[C@H](CC(C)C)CN(CC(=O)N[C@H](CO)CN(CC(=O)N[C@H](CO)CN(CC(=O)N[C@@H](CSCC(=O)OCCOCCOCCOCCOCCOCCOCCOCCOCCOCCOCCOCCO[C@H]1CC[C@@]2(C)C(=CC[C@H]3[C@@H]4CC[C@H]([C@H](C)CCCC(C)C)[C@@]4(C)CC[C@@H]32)C1)C(N)=O)S(C)(=O)=O)S(C)(=O)=O)S(=O)(=O)CC(C)C)S(C)(=O)=O)S(=O)(=O)CCN)S(C)(=O)=O)S(=O)(=O)CCN)S(=O)(=O)CC(C)C)S(=O)(=O)CCN)S(=O)(=O)CCN)S(C)(=O)=O)S(=O)(=O)CCN)S(=O)(=O)CC(C)C` [XY4-C6], it took 2.63 µM to reach half-maximal inhibition in data set [2] (IC50).

Consider `CC(=O)N[C@H](CC(C)C)CN(CC(=O)N[C@H](CCCCN)CN(CC(=O)N[C@H](CC(C)C)CN(CC(=O)N[C@H](CCC(=O)O)CN(CC(=O)N[C@H](CC(C)C)CN(CC(=O)N[C@H](CCC(=O)O)CN(CC(=O)N[C@H](C)CN(CC(=O)N[C@H](CCCCN)CN(CC(=O)N[C@H](C)CN(CC(=O)N[C@H](CCC(=O)O)CN(CC(=O)N[C@H](CC(C)C)CN(CC(N)=O)S(=O)(=O)CC(C)C)S(=O)(=O)CC(C)C)S(=O)(=O)CCN)S(C)(=O)=O)S(=O)(=O)CCN)S(=O)(=O)CC(C)C)S(=O)(=O)CCN)S(=O)(=O)CCN)S(C)(=O)=O)S(=O)(=O)CCN)S(=O)(=O)CCN` [XY2], for which, in data set [3], the Kd stood at 0.329 µM. Take `CC(=O)N[C@H](CC(C)C)CN(CC(=O)N[C@H](CCCCN)CN(CC(=O)N[C@H](CC(C)C)CN(CC(=O)N[C@H](CCC(=O)O)CN(CC(=O)N[C@H](CC(C)C)CN(CC(=O)N[C@H](CCC(=O)O)CN(CC(=O)N[C@H](C)CN(CC(=O)N[C@H](CCCCN)CN(CC(=O)N[C@H](C)CN(CC(=O)N[C@H](CCC(=O)O)CN(CC(=O)N[C@H](CC(C)C)CN(CC(=O)NCCCCCC(=O)NCCCCCC(=O)N[C@@H](CSCC(=O)OCCOCCOCCOCCOCCOCCOCCOCCO[C@H]1CC[C@@]2(C)C(=CC[C@H]3[C@@H]4CC[C@H]([C@H](C)CCCC(C)C)[C@@]4(C)CC[C@@H]32)C1)C(N)=O)S(=O)(=O)CC(C)C)S(C)(=O)=O)S(=O)(=O)CCN)S(C)(=O)=O)S(=O)(=O)CCN)S(=O)(=O)CC(C)C)S(=O)(=O)CCN)S(=O)(=O)CCN)S(C)(=O)=O)S(=O)(=O)CCN)S(=O)(=O)CC(C)C` [XY4-C2]: in data set [2], 2.85 µM corresponded to half-maximal inhibition (IC50). For the compound `CC(=O)N[C@H](CC(C)C)CN(CC(=O)N[C@H](CCCCN)CN(CC(=O)N[C@H](CC(C)C)CN(CC(=O)N[C@H](CCC(=O)O)CN(CC(=O)N[C@H](CC(C)C)CN(CC(=O)N[C@H](CCC(=O)O)CN(CC(=O)N[C@H](C)CN(CC(=O)N[C@H](CCCCN)CN(CC(=O)N[C@H](C)CN(CC(=O)N[C@H](CCC(=O)O)CN(CC(=O)N[C@H](CC(C)C)CN(CC(N)=O)S(=O)(=O)CC(C)C)S(C)(=O)=O)S(=O)(=O)CCN)S(C)(=O)=O)S(=O)(=O)CCN)S(=O)(=O)CC(C)C)S(=O)(=O)CCN)S(=O)(=O)CCN)S(C)(=O)=O)S(=O)(=O)CCN)S(=O)(=O)CC(C)C` [XY4], the Kd in data set [3] amounted to 0.132 µM.

Regarding `Cc1cc(=O)n(-c2ccccc2)n1C` [antipyrine], the Papp at 30 min, 200 μM in data set [1] (200 μM, negative control) was below 6 ×10⁻⁶ cm/s. Take `CC(=O)N[C@H](CC(C)C)CN(CC(=O)N[C@H](CCCCN)CN(CC(=O)N[C@H](CC(C)C)CN(CC(=O)N[C@H](CCC(=O)O)CN(CC(=O)N[C@H](CC(C)C)CN(CC(=O)N[C@H](CCC(=O)O)CN(CC(=O)N[C@H](C)CN(CC(=O)N[C@H](CCCCN)CN(CC(=O)N[C@H](C)CN(CC(=O)N[C@H](CCC(=O)O)CN(CC(=O)N[C@H](CC(C)C)CN(CC(N)=O)S(=O)(=O)CC(C)C)S(C)(=O)=O)S(=O)(=O)CCN)S(C)(=O)=O)S(=O)(=O)CCN)S(=O)(=O)CC(C)C)S(=O)(=O)CCN)S(=O)(=O)CCN)S(C)(=O)=O)S(=O)(=O)CCN)S(=O)(=O)CCN` [XY1]: in data set [3], the Kd was found to be 0.287 µM.

For orientation: Papp means a coefficient for how fast a substance crosses the barrier. Low values mean slow passage, high ones fast passage. The IC50 is the midpoint of a concentration-inhibition curve. In general, Kd refers to the equilibrium constant for the complex coming apart. Low readings indicate a tighter complex, high ones a looser complex.
